Assay [1] deals with T1, HDAC5 protein (Homo sapiens, UniProt Q9UQL6).
T1 construct: purchased Abcam
In words: Biacore T200 binding affinity to immobilised HDAC5 protein. The conditions noted are these: CM5 chip, 1:1 binding model; for kon: read-out: ka.
Procedure: For this purpose, HDAC5 protein (Abcam, MA, USA) was dissolved in sodium acetate buffer (pH 4.5), and was bound to a dextran-covered sensor chip surface (CM5 chip) using N-hydroxysuccinimide (NHS) and N-ethyl-N0-(3-dimethylaminopropyl)-carbodiimide hydrochloride (EDAC) as crosslinkers. The unreacted active group of dextran was blocked by the addition of ethanolamine (1M) thereto. The number of HDAC5 binding to the chip was measured as 4440RU (1000 RU=1 ng/mm^2). […] Rate constants for association (ka) and dissociation (kd), and a dissociation constant (KD) were calculated using BIAevaluation software and a 1:1 binding model.

The test system of assay [2] is collagen-induced arthritis (CIA) rats. Nature of the assay: Collagen-induced arthritis animal model. The class given is in vivo, Wistar rats. From the text:
In order to determine whether or not the peptide according to the present invention is effective in treating rheumatoid arthritis in vivo, the effect of treating arthritis thereof was detected in a collagen-induced arthritis animal model. For this purpose, female Wistar rats (105-135 g, n=67) were purchased from Harlan Co. Ltd. (Indianapolis, IN, USA). All rats were bred in a pathogen-free environment and sterilized standard rat feed (Harlan Co. Ltd, USA) and water were freely fed to the rats. Animal experiments were conducted with the approval of the Institutional Animal Care and Use Committee (IACUC) of Seoul National University. Collagen-induced arthritis was induced in a known manner (Nishikawa et al., Arthritis and rheumatism. 2003; 48:2670-81).
Specifically, 500 μg of bovine collagen type II was injected along with a mixture of 0.5 mL of 0.1 M acetic acid and 0.5 mL of Freund's incomplete adjuvant into rat muscle. On the 7th day, 0.5 mL of 0.1 M acetic acid and 0.5 mL of Freund's incomplete adjuvant were further inoculated along with 250 μg of bovine collagen type II to produce collagen-induced arthritis (CIA) rats. The rats were classified into a CIA-induced group (n=10), a CIA-induced group injected with a low concentration of the peptide of SEQ ID NO: 1 (LD AIP, 15 mg/kg, n=10), a CIA-induced group injected with a high concentration of the peptide of SEQ ID NO: 1 (HD AIP, 30 mg/kg, n=10), a CIA-induced group injected with etanercept (Enbrel) (10 mg/kg, n=10), and a normal group (n=6). From 28 days after the first collagen injection, the peptide of SEQ ID NO: 1 was injected subcutaneously into the back of the neck twice a week over 4 weeks. Etanercept was injected intraperitoneally three times a week over 4 weeks. Swelling of both hind paws was measured twice using a plethysmometer (LE7500 N, IWOO Scientific Corporation, KOREA) on day 22, 29, 31, 35, 38, 42, 45, 49, 52, and 56. The plethysmometer was used after calibration to a weight of 3 mL. The measured area was marked by drawing a line, and measurement was conducted adjacent to the ankle. Hind paw swelling increase (%) and hind paw swelling inhibition (%) were calculated using the following equations.
In order to observe the degree of bone damage in the hind paw, microcomputed tomography (micro-CT) was performed using a SkyScan 1172 (SkyScan, Aartselaar, Belgium). The total volume (TV; mm^3), bone volume (BV; mm^3) and bone volume fraction (BV/TV; %) were analyzed using CTAn software. On the 57th day, rats were sacrificed and subjected to histological analysis. Both hind paws and joints were collected, fixed in 10% buffered formalin, and demineralized in 30% citrate-buffered formic acid at 4° ° C. for 3 days. Paraffin blocks were produced, sliced into sections with a thickness of 4 μm and stained with hematoxylin and eosin (H&E), and then the pathological score was evaluated with an optical microscope. The joint inflammation index was measured based on the following criteria (Shiozawa et al., J Clin Invest. 1997; 99 (6):1210-1216). 0, normal synovium; 1, synovial membrane hypertrophy and cell infiltrates; 2, pannus and cartilage erosion; 3, major erosion of cartilage and subchondral bone; and 4, loss of joint integrity and ankylosis.
The rats were sacrificed and systemic blood was collected, and the concentrations of TNF-α and IL-6 in the blood were measured with an ELISA kit (R&D, Minneapolis, MN, USA).

The record followed here is patent publication US12486303B2, “Use of peptide for inhibiting functions and expressions of multiple disease biomarkers” (NIBEC CO., LTD., priority 2018, dated 2025).

Usually Kd stands for the free concentration of one partner at which half of the binding sites on the other are occupied at equilibrium, for simple one-to-one binding. High values mean weaker binding, low ones tighter binding.

Peptide text beside a SMILES is read from it.

T1 sequence (Q9UQL6 whole entry, species assumed): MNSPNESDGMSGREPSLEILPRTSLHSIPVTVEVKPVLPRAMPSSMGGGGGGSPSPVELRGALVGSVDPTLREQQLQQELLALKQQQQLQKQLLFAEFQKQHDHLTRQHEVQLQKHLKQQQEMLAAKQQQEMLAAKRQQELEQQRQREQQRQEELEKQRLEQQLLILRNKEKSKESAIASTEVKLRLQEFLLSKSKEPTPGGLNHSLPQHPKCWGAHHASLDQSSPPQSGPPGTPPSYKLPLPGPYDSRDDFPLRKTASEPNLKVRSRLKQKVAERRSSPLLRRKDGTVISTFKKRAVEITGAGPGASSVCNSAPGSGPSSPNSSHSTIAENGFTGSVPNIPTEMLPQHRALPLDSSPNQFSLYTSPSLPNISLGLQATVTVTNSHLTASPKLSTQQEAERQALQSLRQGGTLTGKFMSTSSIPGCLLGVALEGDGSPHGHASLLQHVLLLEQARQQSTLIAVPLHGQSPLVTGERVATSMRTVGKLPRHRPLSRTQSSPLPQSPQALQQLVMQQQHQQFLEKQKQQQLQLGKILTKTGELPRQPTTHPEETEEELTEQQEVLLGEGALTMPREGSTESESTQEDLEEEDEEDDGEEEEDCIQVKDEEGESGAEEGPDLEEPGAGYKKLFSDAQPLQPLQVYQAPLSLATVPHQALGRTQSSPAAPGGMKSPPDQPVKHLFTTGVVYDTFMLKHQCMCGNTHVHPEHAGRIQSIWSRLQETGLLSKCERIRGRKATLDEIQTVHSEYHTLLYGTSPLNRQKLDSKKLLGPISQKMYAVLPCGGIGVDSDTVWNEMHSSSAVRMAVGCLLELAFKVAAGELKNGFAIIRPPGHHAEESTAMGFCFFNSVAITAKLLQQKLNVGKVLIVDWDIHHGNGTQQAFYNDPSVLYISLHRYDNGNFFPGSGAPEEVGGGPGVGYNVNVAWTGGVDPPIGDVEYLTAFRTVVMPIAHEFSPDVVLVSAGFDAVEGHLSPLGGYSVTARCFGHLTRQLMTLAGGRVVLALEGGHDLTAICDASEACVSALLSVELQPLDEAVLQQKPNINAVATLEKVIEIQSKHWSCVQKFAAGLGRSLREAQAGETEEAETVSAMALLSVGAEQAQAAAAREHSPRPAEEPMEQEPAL

With `CSCC[C@H](NC(=O)[C@H](CS)NC(=O)[C@H](CCCCN)NC(=O)[C@H](CCCNC(=N)N)NC(=O)CNC(=O)[C@H](CCCNC(=N)N)NC(=O)[C@@H](NC(=O)[C@H](CO)NC(=O)[C@H](CS)NC(=O)[C@H](CCCCN)NC(=O)CN)[C@@H](C)O)C(=O)N[C@@H](CCCNC(=N)N)C(=O)N[C@@H](CCCNC(=N)N)C(=O)N[C@@H](CCCCN)C(=O)N[C@@H](CCCCN)C(=O)O` [SEQ ID NO: 2] (H-GKCSTRGRKCMRRKK-OH; N-terminus and C-terminus assumed), in assay [1], the kd amounted to 0.06872 s⁻¹ and the kon was 74400 M⁻¹ s⁻¹.
In the same order, the values of `CSCC[C@H](NC(=O)[C@H](CCCCN)NC(=O)[C@H](CCCNC(=N)N)NC(=O)CNC(=O)[C@H](CCCNC(=N)N)NC(=O)[C@@H](NC(=O)[C@H](CO)NC(=O)[C@H](CS)NC(=O)[C@H](CCCCN)NC(=O)CN)[C@@H](C)O)C(=O)N[C@@H](CS)C(=O)N[C@@H](CCCNC(=N)N)C(=O)N[C@@H](CCCNC(=N)N)C(=O)N[C@@H](CCCCN)C(=O)N[C@@H](CCCCN)C(=O)O` [SEQ ID NO: 3] (H-GKCSTRGRKMCRRKK-OH; N-terminus and C-terminus assumed) are 0.05953 s⁻¹ and 82100 M⁻¹ s⁻¹.
With `CSCC[C@H](NC(=O)[C@H](CCCCN)NC(=O)[C@H](CCCNC(=N)N)NC(=O)CNC(=O)[C@H](CCCNC(=N)N)NC(=O)[C@@H](NC(=O)[C@H](CO)NC(=O)[C@H](CS)NC(=O)[C@H](CCCCN)NC(=O)CN)[C@@H](C)O)C(=O)N[C@@H](CCSC)C(=O)N[C@@H](CCCNC(=N)N)C(=O)N[C@@H](CCCNC(=N)N)C(=O)N[C@@H](CCCCN)C(=O)N[C@@H](CCCCN)C(=O)O` [SEQ ID NO: 4] (H-GKCSTRGRKMMRRKK-OH; N-terminus and C-terminus assumed), in assay [1], binding was put at a Kd of 940 nM, the kd is 0.06788 s⁻¹ and the kon was determined as 72200 M⁻¹ s⁻¹.
For `CSCC[C@H](NC(=O)[C@H](CCCCN)NC(=O)CN)C(=O)N[C@@H](CO)C(=O)N[C@H](C(=O)N[C@@H](CCCNC(=N)N)C(=O)NCC(=O)N[C@@H](CCCNC(=N)N)C(=O)N[C@@H](CCCCN)C(=O)N[C@@H](CS)C(=O)N[C@@H](CS)C(=O)N[C@@H](CCCNC(=N)N)C(=O)N[C@@H](CCCNC(=N)N)C(=O)N[C@@H](CCCCN)C(=O)N[C@@H](CCCCN)C(=O)O)[C@@H](C)O` [SEQ ID NO: 5] (H-GKMSTRGRKCCRRKK-OH; N-terminus and C-terminus assumed), in assay [1], the kd turned out to be 0.03088 s⁻¹ and the kon is 65900 M⁻¹ s⁻¹.
For the compound `CSCC[C@H](NC(=O)[C@H](CCCCN)NC(=O)CN)C(=O)N[C@@H](CO)C(=O)N[C@H](C(=O)N[C@@H](CCCNC(=N)N)C(=O)NCC(=O)N[C@@H](CCCNC(=N)N)C(=O)N[C@@H](CCCCN)C(=O)N[C@@H](CCSC)C(=O)N[C@@H](CS)C(=O)N[C@@H](CCCNC(=N)N)C(=O)N[C@@H](CCCNC(=N)N)C(=O)N[C@@H](CCCCN)C(=O)N[C@@H](CCCCN)C(=O)O)[C@@H](C)O` [SEQ ID NO: 6] (H-GKMSTRGRKMCRRKK-OH; N-terminus and C-terminus assumed), in assay [1], the affinity, expressed as Kd, was 444 nM; the kd was found to be 0.04463 s⁻¹; the kon worked out at 100000 M⁻¹ s⁻¹.
On the same counts, the results for `CSCC[C@H](NC(=O)[C@H](CCCCN)NC(=O)CN)C(=O)N[C@@H](CO)C(=O)N[C@H](C(=O)N[C@@H](CCCNC(=N)N)C(=O)NCC(=O)N[C@@H](CCCNC(=N)N)C(=O)N[C@@H](CCCCN)C(=O)N[C@@H](CS)C(=O)N[C@@H](CCSC)C(=O)N[C@@H](CCCNC(=N)N)C(=O)N[C@@H](CCCNC(=N)N)C(=O)N[C@@H](CCCCN)C(=O)N[C@@H](CCCCN)C(=O)O)[C@@H](C)O` [SEQ ID NO: 7] (H-GKMSTRGRKCMRRKK-OH; N-terminus and C-terminus assumed) are 704 nM, 0.04757 s⁻¹ and 67500 M⁻¹ s⁻¹.
For the compound `CSCC[C@H](NC(=O)[C@H](CCCCN)NC(=O)CN)C(=O)N[C@@H](CO)C(=O)N[C@H](C(=O)N[C@@H](CCCNC(=N)N)C(=O)NCC(=O)N[C@@H](CCCNC(=N)N)C(=O)N[C@@H](CCCCN)C(=O)N[C@@H](CCSC)C(=O)N[C@@H](CCSC)C(=O)N[C@@H](CCCNC(=N)N)C(=O)N[C@@H](CCCNC(=N)N)C(=O)N[C@@H](CCCCN)C(=O)N[C@@H](CCCCN)C(=O)O)[C@@H](C)O` [SEQ ID NO: 8] (H-GKMSTRGRKMMRRKK-OH; N-terminus and C-terminus assumed), in assay [1], the Kd came out at 86.8 nM, the kd worked out at 0.004776 s⁻¹ and the kon came to 55000 M⁻¹ s⁻¹.
Regarding etanercept [reference compound], in assay [2] (ELISA, high concentration of peptide or etanercept, CIA-induced group 109 pg/ml), the “Concentration of IL-6 in blood” value is listed as 24 pg/mL. Besides, in assay [2] (ELISA, high concentration of peptide or etanercept, CIA-induced group 128 pg/ml), the “Concentration of TNF-α in blood” value is listed as 39 pg/mL. The “Microscopic observation of joint tissues (inflammation, H&E)” value in assay [2] (FIG. 4A) is listed as “results similar to the CIA-induced group injected with a low concentration of SEQ ID NO: 1”. Also, the “Hind paw swelling inhibition (%)” value in assay [2] (etanercept 10 mg/kg intraperitoneally) was 37%. Besides, in assay [2] (peptide 15 or 30 mg/kg subcutaneously twice a week, etanercept 10 mg/kg intraperitoneally three times a week, 4 weeks), the “Hind paw swelling (%)” value was “decreased hind paw swelling (%) within 35 to 56 days (P<0.05)”. Moreover, the Inflammation index in assay [2] (score 0-4, CIA-induced group 3.3±0.67) was 2.3±1.16.
